{
  "source": "ChEMBL document CHEMBL1143877",
  "about": "“Xylose as a carrier for boron containing compounds” (2008)",
  "key": {"T-24 [1]": {"tested_on": "T-24", "test": "Inhibition of tumor growth in human T24 cells xenografted orally dosed SCIDnodCA mouse", "assay_type": "functional", "design": "scale not given: the % may be the effect or the level left"}, "T-24 [2]": {"tested_on": "T-24", "test": "Inhibition of tumor growth in human T24 cells xenografted sc dosed SCIDnodCA mouse", "assay_type": "functional", "design": "scale not given: the % may be the effect or the level left"}},
  "data": [
    {"molecule": "Oc1ccc2cc(O[C@@H]3OC[C@@H](O)[C@H](O)[C@H]3O)ccc2c1", "values": [
      {"measurement": "Activity", "setting": "T-24 [1]", "value": 70, "unit": "%"},
      {"measurement": "Activity", "setting": "T-24 [2]", "value": 97, "unit": "%"}
    ]}
  ]
}
